Assay [1] deals with thoracic aorta. Description: Vasorelaxant effect on isolated vessels (rat thoracic aorta rings without endothelium, precontracted with noradrenalin). Further details: species or system Wistar rats. The conditions noted are these: for Emax: Rattus norvegicus, maximum inhibition of noradrenalin effect, 10^-8 to 10^-4 M substance, read-out: Maximum Relaxation; for IC50: rat aorta, 10^-7 M noradrenalin contraction. As for the experimental part: Vasorelaxant effect of the compounds according to the invention on isolated vessels.
Adult Wistar rats weighing between 250 and 350 g are anaesthetised by intraperitoneal injection of sodium pentobarbital (30 mg/kg). The thoracic aorta is rapidly removed and placed in a refrigerated and oxygenated solution of bicarbonate buffer of the Krebs-Ringer type (composition [mM]: NaCl, 118; KCl, 4.7; CaCl2, 2.5; MgSO4, 1.2; KH2 PO4, 1.2; NaHCO3, 25.0; disodium calcium salt of EDTA, 0.026; glucose 11.1). The aorta is dissected with the aim of removing the connective tissue and then cut into 6 rings (length 5-10 mm). The endothelium is removed by moderate abrasion of the intimal surface of the aortic segments with the aid of a pair of tweezers. These segments are then placed between two hooks in an isolated organ cell filled with 25 ml of bicarbonate buffer (pH 7.4), thermostat-controlled at 37° C. and oxygenated with the aid of a 95% O2 /5% CO2 mixture (pH 7.4). One of the hooks is fixed to a fixed point, while the second is connected to a transducer with the aim of measuring the variations in isometric voltage (expressed in grams). After an equilibration period of 30 min., the segments are progressively withdrawn so as to attain the level of base voltage for which the contractor response to noradrenalin (10^-7 M) is maximum (optimum voltage; average 2 g). The absence of endothelium is verified by addition of a single concentration of acetylcholine (10^-6 M), after precontraction of the vessels by noradrenalin (10^-7 M). The integrity of the vascular smooth muscle is also verified by adding a single concentration of a vasodilator whose response is independent of the presence of the endothelium, SIN-1 (10^-5 M). After this initial procedure, the aortas are washed, equilibrated for a period of 30 min and then recontracted (10^-7 M noradrenalin). The relaxant effect of the substance to be tested is then evaluated by adding increasing concentrations of this substance (from 10^-8 to 10^-4 M). The maximum inhibition of the concentration caused by noradrenalin (expressed as a percentage) is then calculated ("maximum relaxation"). When this maximum relaxation is greater than 50%, the concentration of substance tested producing a 50% inhibition of the maximum contraction (IC50) is calculated. Table V below collates the IC50 and the maximum relaxation percentages for the various compounds tested.

The subject of assay [2] is anesthetised dogs. In words: Haemodynamic effects on anesthetised dogs. In kind it is in vivo, dogs (labrador/harrier cross). The following applies: dogs. As for the experimental part: Haemodynamic effects of the compounds according to the invention on anesthetised pigs or dogs
The dogs, weighing between 16 and 26 kg, are the progeny of a labrador/harrier cross.
In the case of dogs the anesthesia is induced by sodium pentobarbitol (45 mg/jg i.v.) and maintained with an i.v. perfusion (flow rate of 8 mg/kg/h).
The pigs or dogs are placed under artificial respiration in ambient air. Analysis of the blood gases (pO2, pCO2) is carried out at regular intervals and oxygen can be supplied via the respirator, if necessary.
The haemodynamic parameters recorded include the left ventricular pressure (LVP; Millar PC350 Tip catheter inserted via the carotid artery), systemic blood pressure (BPs, BPd; full catheter in a femoral artery), the end pressure of the left ventricular diastole (LVEDP), the ventricular contractility (LVPdp/dtmax) and the heart rate (HR).
Following an equilibration period of the order of 45 minutes, the compounds studied are administered intraduodenally (i.d.) or intraveinously (i.v.) to several animals (1 to 4). The haemodynamic variables are recorded continuously for 1 to 3 hours, as a function of the period of action of the compound.
The effects of the compounds studied are shown as the absolute difference with respect to the base value (bv) measured before administration of the compounds and are shown in Table VII (a,b,c).
An antianginal activity is estimated by a fall in the BPs and the LVEDP (fall in venous return).

13 molecules from patent publication US5591758A, “Organic nitrates, processes for their preparation and their use in the treatment of cardiovascular diseases” (Laboratoires Hoechst, SA, priority 1991, dated 1997) can be followed below.

Molecules are shown by their SMILES. Where a name gives a salt, the structure may show the parent alone.

Regarding `CC(C)(C)OC(=O)N1CCC[C@H]1C(=O)N[C@H]1CO[C@H]2[C@@H]1OC[C@@H]2O[N+](=O)[O-]` [Compound 13, N-[(t-Butoxy)carbonyl]-L-proline amide of 5-amino-5-deoxy-2-O-nitro-1,4:3,6-dianhydro-L-iditol], in assay [1], the Emax is 74% and the IC50 (usually the concentration needed to halve the response being measured) was 49 µM. In addition, in assay [2] (3 mg/kg i.d.), the “BPs (min), period of action” value was > 120 min and the “BPs, difference to base value” was -30 mmHg.

Take `O=C(CNC(=O)[C@@H]1CSCN1)O[C@H]1CO[C@H]2[C@@H]1OC[C@H]2O[N+](=O)[O-]` [Compound 73, 2-O-[2-[[(4-L-thiazolidinyl)carbonyl]amino]-1-oxoethyl]-5-O-nitro-1,4:3,6-dianhydro-D-glucitol monohydrochloride]: in assay [1], the Emax is 66% and the IC50 was 53 µM. Further, in assay [2] (3 mg/kg i.v.), the “BPs (min), period of action” value worked out at 60 min; the “BPs, difference to base value” was -15 mmHg; the “LVEDP (min), period of action” value is given as 60 min; the “LVEDP, difference to base value” is -2,0 mmHg.

Regarding `CC(C)[C@H](NC(=O)OC(C)(C)C)C(=O)N[C@H]1CO[C@H]2[C@@H]1OC[C@@H]2O[N+](=O)[O-]` [Compound 9, N-[(t-Butoxy)carbonyl]-L-valine amide of 5-amino-5-deoxy-2-O-nitro-1,4:3,6-dianhydro-L-iditol], in assay [1], the Emax stood at 70% and 80 µM corresponded to half-maximal inhibition (IC50). Also, in assay [2] (3 mg/kg i.d.), the “BPs (min), period of action” value was > 60 min; the “BPs, difference to base value” was 5 mmHg; the “LVEDP (min), period of action” value was 0 min; the “LVEDP, difference to base value” is 0,0 mmHg.

Regarding `C[C@H](NC(=O)OC(C)(C)C)C(=O)N[C@H]1CO[C@H]2[C@@H]1OC[C@@H]2O[N+](=O)[O-]` [Compound 7, N-[(t-Butoxy)carbonyl]-L-alanine amide of 5-amino-5-deoxy-2-O-nitro-1,4:3,6-dianhydro-L-iditol], in assay [1], the Emax came out at 96% and the IC50 was determined as 17 µM. In addition, in assay [2] (3 mg/kg i.v.), the “BPs (min), period of action” value is on record as > 90 min; the “BPs, difference to base value” was -20 mmHg; the “LVEDP (min), period of action” value is reported as > 90 min; the “LVEDP, difference to base value” was -2,0 mmHg.

On to `CC(C)(C)OC(=O)NCC(=O)O[C@H]1CO[C@H]2[C@@H]1OC[C@H]2O[N+](=O)[O-]` [Compound 1, N-[(t-Butoxy)carbonyl]glycine ester of 5-O-nitro-1,4:3,6-dianhydro-D-glucitol], for which, in assay [1], the Emax amounted to 83% and inhibition was half-maximal at 32 µM (IC50). Moreover, in assay [2] (3 mg/kg i.v.), the “BPs (min), period of action” value amounted to 10 min; the “BPs, difference to base value” is listed as 5 mmHg; the “LVEDP (min), period of action” value turned out to be 10 min; the “LVEDP, difference to base value” is recorded as 1,0 mmHg.

As to `NCC(=O)O[C@H]1CO[C@H]2[C@@H]1OC[C@H]2O[N+](=O)[O-]` [Compound 2, Glycine ester of 5-O-nitro-1,4:3,6-dianhydro-D-glucitol monohydrochloride], in assay [1], the Emax worked out at 52% and 100 µM corresponded to half-maximal inhibition (IC50). Further, in assay [2] (3 mg/kg i.v.), the “BPs (min), period of action” value is > 120 min; the “BPs, difference to base value” is given as -10 mmHg; the “LVEDP (min), period of action” value is > 120 min; the “LVEDP, difference to base value” is reported as -1,0 mmHg.

In the case of `CSCC[C@H](NC(=O)OC(C)(C)C)C(=O)N[C@H]1CO[C@H]2[C@@H]1OC[C@H]2O[N+](=O)[O-]` [Compound 43, N-[(t-Butoxy)carbonyl]-L-methionine amide of 2-amino-2-deoxy-5-O-nitro-1,4:3,6-dianhydro-D-glucitol], in assay [1], the Emax is 80% and half-maximal inhibition (IC50) required 32 µM. In assay [2] (10 mg/kg i.v.), the “BPs (min), period of action” value is reported as 90 min; the “BPs, difference to base value” is -20 mmHg; the “LVEDP (min), period of action” value worked out at 60 min; the “LVEDP, difference to base value” is -1,0 mmHg.

For the molecule `NCC(=O)O[C@@H]1CO[C@H]2[C@@H]1OC[C@@H]2O[N+](=O)[O-]` [Compound 3, Glycine ester of 2-O-nitro-1,4:3,6-dianhydro-D-glucitol monohydrochloride], in assay [1], the Emax was 63% and it took 79 µM to reach half-maximal inhibition (IC50). Further, in assay [2] (3 mg/kg i.d.), the “BPs (min), period of action” value was > 60 min; the “BPs, difference to base value” was -10 mmHg; the “LVEDP (min), period of action” value is on record as > 60 min; the “LVEDP, difference to base value” is listed as -4,5 mmHg.

Regarding `CC(C)(C)OC(=O)N1CSC[C@H]1C(=O)O[C@@H]1CO[C@H]2[C@@H]1OC[C@@H]2O[N+](=O)[O-]` [Compound 24, 5-O-[(3-t-Butoxycarbonyl-4-L-thiazolidinyl)carbonyl]-2-O-nitro-1,4:3,6-dianhydro-D-glucitol], in assay [1], the Emax was determined as 100% and the IC50 is 20 µM. In assay [2] (3 mg/kg i.v.), the “BPs (min), period of action” value is > 30 min; the “BPs, difference to base value” is -10 mmHg; the “LVEDP (min), period of action” value is on record as 10 min; the “LVEDP, difference to base value” is reported as 1,0 mmHg.

For `CC(=O)NCSC[C@H](NC(=O)OC(C)(C)C)C(=O)O[C@@H]1CO[C@H]2[C@@H]1OC[C@@H]2O[N+](=O)[O-]` [Compound 26, S-[(Acetylamino)methyl]-N-[(t-butoxy)carbonyl]-L-cysteine ester of 2-O-nitro-1,4:3,6-dianhydro-D-glucitol], in assay [1], the Emax amounted to 70% and the IC50 stood at 80 µM. Besides, in assay [2] (10 mg/kg i.v.), the “BPs (min), period of action” value is on record as > 90 min; the “BPs, difference to base value” is listed as -10 mmHg; the “LVEDP (min), period of action” value is reported as > 90 min; the “LVEDP, difference to base value” was 2,0 mmHg.

In the case of `C[C@H](NC(=O)[C@@H]1CSCN1C(=O)OC(C)(C)C)C(=O)N[C@H]1CO[C@H]2[C@@H]1OC[C@@H]2O[N+](=O)[O-]` [Compound 61, 5-[[2-[[(3-t-butoxycarbonyl-4-n-thiazolidinyl)carbonyl]amino]-1-((2S)-2-methyl)-oxoethyl]amino]-5-deoxy-2-O-nitro-1,4:3,6-dianhydro-L-iditol], in assay [1], the Emax was determined as 100% and the IC50 worked out at 32 µM. Besides, in assay [2] (3 mg/kg i.d.), the “BPs (min), period of action” value is reported as > 180 min; the “BPs, difference to base value” is -25 mmHg; the “LVEDP (min), period of action” value is on record as > 180 min; the “LVEDP, difference to base value” is -1,5 mmHg.

As for `O=C(CNC(=O)[C@@H]1CSCN1)N[C@H]1CO[C@H]2[C@@H]1OC[C@H]2O[N+](=O)[O-]` [Compound 71, 2-[[2-[[(4-L-thiazolidinyl)carbonyl]]amino]-1-oxoethyl]amino]-2-deoxy-5-O-nitro-1,4:3,6-dianhydro-D-glucitol monohydrochloride], in assay [1], the Emax was determined as 66% and the IC50 came out at 70 µM. In assay [2] (3 mg/kg i.d.), the “BPs (min), period of action” value stood at 0 min; the “BPs, difference to base value” is 0 mmHg; the “LVEDP (min), period of action” value was > 60 min; the “LVEDP, difference to base value” is -5,5 mmHg.

`O=C(N[C@H]1CO[C@H]2[C@@H]1OC[C@@H]2O[N+](=O)[O-])[C@@H]1CSCN1C(=O)[C@@H]1CSCN1` [Compound 78, 5-[[[(4R)-N-[(4-L-thiazolidinyl)carbonyl]-4-thiazolidinyl]carbonyl]amino]-5-deoxy-2-O-nitro-1,4:3,6-dianhydro-L-iditol monohydrochloride]: in assay [1], the Emax was 89% and the IC50 turned out to be 20 µM. Besides, in assay [2] (3 mg/kg i.d.), the “BPs (min), period of action” value was found to be 150 min; the “BPs, difference to base value” is reported as -13 mmHg; the “LVEDP (min), period of action” value came out at 90 min; the “LVEDP, difference to base value” was -1,0 mmHg.
